One experiment deals with lean rats. Nature of the experiment: Rat acute food intake study. The format is in vivo. Particulars: lean male Sprague Dawley rats, 20 nmol/kg subcutaneously. In outline: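 Male Sprague Dawley rats (n=7/group), fasted 6 h, received 20 nmol/kg test compound or 60 nmol/kg pramlintide subcutaneously 30 min before food return at dark onset. Food intake recorded automatically in home cages over 3 days, binned hourly and analysed as cumulative dark-period intake; body weight taken daily.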

In experiment [1] the target is T1, rat calcitonin receptor (rat CTR) (Rattus norvegicus, UniProt P32214).
T1 construct: expressed in transfected cells
T1 sequence (P32214 25-516): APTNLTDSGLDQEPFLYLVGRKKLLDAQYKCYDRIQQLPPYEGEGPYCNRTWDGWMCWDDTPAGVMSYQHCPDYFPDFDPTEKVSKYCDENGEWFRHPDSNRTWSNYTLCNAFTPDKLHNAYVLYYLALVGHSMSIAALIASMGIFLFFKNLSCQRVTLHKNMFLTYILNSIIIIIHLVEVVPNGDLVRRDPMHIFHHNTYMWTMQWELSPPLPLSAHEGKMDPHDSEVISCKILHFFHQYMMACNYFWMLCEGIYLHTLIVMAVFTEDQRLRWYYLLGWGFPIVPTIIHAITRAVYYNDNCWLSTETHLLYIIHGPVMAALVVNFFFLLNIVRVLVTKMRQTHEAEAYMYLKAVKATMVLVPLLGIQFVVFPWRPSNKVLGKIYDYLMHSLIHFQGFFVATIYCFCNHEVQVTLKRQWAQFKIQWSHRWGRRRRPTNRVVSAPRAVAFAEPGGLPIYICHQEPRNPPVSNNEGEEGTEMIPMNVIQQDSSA
Nature of the experiment: cAMP production in HEK cells with stable recombinant expression of rat calcitonin receptor (rat CTR). It is filed as cell-based. To be noted: assay buffer with 0.1% BSA. A digest of the protocol:
(§1)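 EC50 values come from 4-parameter logistic fits of HTRF cAMP signal, normalised to maximal calcitonin or amylin effect. Peptides were tested in duplicate for 30 min at RT in IBMX-containing (0.5 mM) BSA/HEPES buffer pH 7.4 on stable 1321N1 (human CTR, AMYR3) or HEK (rat CTR, AMYR3) lines.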
(In general: cAMP levels reflect the balance of adenylyl cyclase and phosphodiesterase activity.)

Experiment [2] deals with T2, rat amylin receptor (calcitonin receptor co-expressed with receptor activity modifying protein, RAMP3) (Rat AMYR3) (Rattus norvegicus, UniProt P32214+Q9JJ73).
T2 construct: expressed in transfected cells
T2 sequence (P32214 25-516): T1 sequence (P32214 25-516)
T2 sequence (Q9JJ73 23-147 partner): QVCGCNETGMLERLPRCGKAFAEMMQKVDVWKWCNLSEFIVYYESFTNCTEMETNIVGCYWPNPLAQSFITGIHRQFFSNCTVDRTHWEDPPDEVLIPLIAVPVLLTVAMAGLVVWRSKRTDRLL
Nature of the experiment: cAMP production in HEK cells with stable recombinant expression of rat amylin receptor (Rat AMYR3). The format is cell-based. To be noted: assay buffer with 0.1% BSA. A digest of the protocol: as §1

Experiment [3] deals with T3, human calcitonin receptor (hCTR) (Homo sapiens, UniProt P30988).
T3 construct: expressed in transfected cells
T3 sequence (P30988 25-474): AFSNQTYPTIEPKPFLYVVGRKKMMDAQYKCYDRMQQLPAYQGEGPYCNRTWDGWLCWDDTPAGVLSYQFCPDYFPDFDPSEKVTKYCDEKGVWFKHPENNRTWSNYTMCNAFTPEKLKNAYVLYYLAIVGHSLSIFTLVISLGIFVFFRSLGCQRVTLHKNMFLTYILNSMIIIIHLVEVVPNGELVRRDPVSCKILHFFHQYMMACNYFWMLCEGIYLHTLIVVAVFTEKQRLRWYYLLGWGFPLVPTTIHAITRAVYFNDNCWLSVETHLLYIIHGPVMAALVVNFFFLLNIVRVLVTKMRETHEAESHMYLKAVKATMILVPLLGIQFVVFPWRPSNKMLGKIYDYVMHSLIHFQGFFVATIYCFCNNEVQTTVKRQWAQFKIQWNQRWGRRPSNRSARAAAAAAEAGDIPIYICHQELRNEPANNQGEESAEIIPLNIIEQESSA
Nature of the experiment: cAMP production in 1321N1 cells with stable recombinant expression of human calcitonin receptor (hCTR). The format is cell-based. Particulars: cAMP, 1321N1 cells, assay buffer with 0.1% BSA; read-out: EC50 (pM) hCTR. In outline: as §1

Experiment [4] concerns the target T4, human amylin receptor (calcitonin receptor co-expressed with receptor activity modifying protein, RAMP3) (hAMYR3) (Homo sapiens, UniProt O60896+P30988).
T4 construct: expressed in transfected cells
T4 sequence (P30988 25-474): T3 sequence (P30988 25-474)
T4 sequence (O60896 24-148 partner): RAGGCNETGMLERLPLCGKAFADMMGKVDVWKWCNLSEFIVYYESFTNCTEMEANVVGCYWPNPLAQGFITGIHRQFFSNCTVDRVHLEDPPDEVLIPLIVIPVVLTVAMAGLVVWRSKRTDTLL
Briefly: cAMP production in 1321N1 cells with stable recombinant expression of human amylin receptor (hAMYR3). The format is cell-based. To be noted: for Ratio (selectivity hAMYR vs hCTR, ratio of EC50 values at the two receptors): EC50 hCTR / EC50 hAMYR3; for EC50: cAMP, 1321N1 cells, assay buffer with 0.1% BSA, read-out: EC50 (pM) hAMYR3. A digest of the protocol: as §1

Numbered stars: 1 amine (or outer) side, 2 acyl side, 3 side chain; on linkers, the order of the positions; unused ones are H or OH. Bridge positions count the residues as written; N and C are the ends. Square brackets hold non-standard residues; d marks the D form. Side chains are listed from the residue outwards. Peptide text beside a SMILES is read from it. * marks the point of attachment. C20 diacid = O=C(O)CCCCCCCCCCCCCCCCCCC(=O)*; C18 diacid = O=C(O)CCCCCCCCCCCCCCCCC(=O)*; γGlu = O=C(O)[C@H](CCC(=O)[*:2])N[*:1]; AEEA = NCCOCCOCC(=O)O; Aib = CC(C)(N)C(=O)O

As a reminder, the EC50 is the concentration giving half of the maximal effect. On to `CC[C@H](C)[C@H](NC(=O)[C@@H]1CCCN1C(=O)CNC(=O)[C@H](Cc1ccccc1)NC(=O)[C@H](CC(N)=O)NC(=O)[C@H](CC(N)=O)NC(=O)[C@H](CO)NC(=O)[C@H](CO)NC(=O)[C@H](Cc1c[nH]cn1)NC(=O)[C@@H](NC(=O)[C@H](CC(C)C)NC(=O)[C@H](Cc1ccccc1)NC(=O)[C@H](CC(N)=O)NC(=O)[C@H](C)NC(=O)[C@H](CC(C)C)NC(=O)[C@H](CCCNC(=N)N)NC(=O)[C@H](CCC(N)=O)NC(=O)[C@@H](NC(=O)[C@H](C)NC(=O)[C@@H]1CSSC[C@H](NC(=O)[C@H](CCCCN)NC(=O)CC[C@H](NC(=O)CCCCCCCCCCCCCCCCCCC(=O)O)C(=O)O)C(=O)N[C@@H](CC(N)=O)C(=O)N[C@@H]([C@@H](C)O)C(=O)N[C@@H](C)C(=O)N[C@@H]([C@@H](C)O)C(=O)N1)[C@@H](C)O)C(C)C)C(=O)N[C@@H](CC(C)C)C(=O)N1CCC[C@H]1C(=O)N1CCC[C@H]1C(=O)N[C@H](C(=O)N[C@@H](CC(N)=O)C(=O)N[C@H](C(=O)NCC(=O)N[C@@H](CO)C(=O)N[C@@H](CC(N)=O)C(=O)N[C@H](C(=O)N[C@@H](Cc1ccc(O)cc1)C(N)=O)[C@@H](C)O)C(C)C)[C@@H](C)O` [Peptide 112] ({C20 diacid-γGlu}-KCNTATCATQRLANFLVHSSNNFGPILPPTNVGSNTY-NH2; disulfide 2-7), for which, in the experiment with lean rats, the “Cummulative food intake (% vehicle treated intake) At 12 h” value was 15.8 % vehicle treated intake, the “Cummulative food intake (% vehicle treated intake) At 24 h” value is listed as 15.9 % vehicle treated intake and the “Cummulative food intake (% vehicle treated intake) At 48 h” value is given as 22.1 % vehicle treated intake. Besides, the concentration for a half-maximal effect (EC50) in experiment [1] came out at 258 pM. Also, in experiment [2], the EC50 stood at 16 pM. In experiment [3], the EC50 is 1340 pM. Besides, in experiment [4], the “Ratio (selectivity hAMYR vs hCTR, ratio of EC50 values at the two receptors)” value came to 2 and the EC50 amounted to 861 pM.

Turning to `CC[C@H](C)[C@H](NC(=O)[C@@H]1CCCN1C(=O)CNC(=O)[C@H](Cc1ccccc1)NC(=O)[C@H](CC(N)=O)NC(=O)[C@H](CC(N)=O)NC(=O)[C@H](CO)NC(=O)[C@H](CO)NC(=O)[C@H](Cc1c[nH]cn1)NC(=O)[C@@H](NC(=O)[C@H](CC(C)C)NC(=O)[C@H](Cc1ccccc1)NC(=O)[C@H](CC(N)=O)NC(=O)[C@H](C)NC(=O)[C@H](CC(C)C)NC(=O)[C@H](CCCNC(=N)N)NC(=O)[C@H](CCC(N)=O)NC(=O)[C@@H](NC(=O)[C@H](C)NC(=O)[C@@H]1CSSC[C@H](NC(=O)[C@H](CCCCN)NC(=O)COCCOCCNC(=O)COCCOCCNC(=O)CC[C@H](NC(=O)CCCCCCCCCCCCCCCCCCC(=O)O)C(=O)O)C(=O)N[C@@H](CC(N)=O)C(=O)N[C@@H]([C@@H](C)O)C(=O)N[C@@H](C)C(=O)N[C@@H]([C@@H](C)O)C(=O)N1)[C@@H](C)O)C(C)C)C(=O)N[C@@H](CC(C)C)C(=O)N1CCC[C@H]1C(=O)N1CCC[C@H]1C(=O)N[C@H](C(=O)N[C@@H](CC(N)=O)C(=O)N[C@H](C(=O)NCC(=O)N[C@@H](CO)C(=O)N[C@@H](CC(N)=O)C(=O)N[C@H](C(=O)N[C@@H](Cc1ccc(O)cc1)C(N)=O)[C@@H](C)O)C(C)C)[C@@H](C)O` [Peptide 113] ({C20 diacid-γGlu-AEEA-AEEA}-KCNTATCATQRLANFLVHSSNNFGPILPPTNVGSNTY-NH2; disulfide 2-7), the “Cummulative food intake (% vehicle treated intake) At 12 h” value in the experiment on lean rats amounted to 69.5 % vehicle treated intake. Besides, the “Cummulative food intake (% vehicle treated intake) At 24 h” value in the experiment with lean rats worked out at 65.8 % vehicle treated intake. Moreover, the “Cummulative food intake (% vehicle treated intake) At 48 h” value with lean rats is 77.9 % vehicle treated intake. The EC50 in experiment [1] came to 10400 pM; in experiment [2], 32.6 pM; in experiment [3], 18500 pM; in experiment [4] it was 1170 pM. In addition, in experiment [4], the “Ratio (selectivity hAMYR vs hCTR, ratio of EC50 values at the two receptors)” value stood at 16.

Regarding `CC[C@H](C)[C@H](NC(=O)[C@@H]1CCCN1C(=O)CNC(=O)[C@H](Cc1ccccc1)NC(=O)[C@H](CC(N)=O)NC(=O)[C@H](CC(N)=O)NC(=O)[C@H](CO)NC(=O)[C@H](CO)NC(=O)[C@H](Cc1c[nH]cn1)NC(=O)C(C)(C)NC(=O)[C@H](CC(C)C)NC(=O)[C@H](Cc1ccccc1)NC(=O)[C@H](CC(N)=O)NC(=O)[C@H](C)NC(=O)[C@H](CC(C)C)NC(=O)[C@H](CCCNC(=N)N)NC(=O)[C@H](CCC(N)=O)NC(=O)[C@@H](NC(=O)[C@H](C)NC(=O)[C@@H]1CSSC[C@H](NC(=O)[C@H](CCCCN)NC(=O)[C@@H](N)CCCCNC(=O)CC[C@H](NC(=O)CCCCCCCCCCCCCCCCC(=O)O)C(=O)O)C(=O)N[C@@H](CC(N)=O)C(=O)N[C@@H]([C@@H](C)O)C(=O)N[C@@H](C)C(=O)N[C@@H]([C@@H](C)O)C(=O)N1)[C@@H](C)O)C(=O)N[C@@H](CC(C)C)C(=O)N1CCC[C@H]1C(=O)N1CCC[C@H]1C(=O)N[C@H](C(=O)N[C@@H](CC(N)=O)C(=O)N[C@H](C(=O)NCC(=O)N[C@@H](CO)C(=O)N[C@@H](CC(N)=O)C(=O)N[C@H](C(=O)N[C@@H](Cc1ccc(O)cc1)C(N)=O)[C@@H](C)O)C(C)C)[C@@H](C)O` [Peptide 129] (H-K([γGlu-C18 diacid])KCNTATCATQRLANFL[Aib]HSSNNFGPILPPTNVGSNTY-NH2; disulfide 3-8; N-terminus assumed), in the experiment on lean rats, the “Cummulative food intake (% vehicle treated intake) At 12 h” value was found to be 29 % vehicle treated intake, the “Cummulative food intake (% vehicle treated intake) At 24 h” value is 32.4 % vehicle treated intake and the “Cummulative food intake (% vehicle treated intake) At 48 h” value was found to be 51 % vehicle treated intake. Further, the EC50 in experiment [1] came out at 2870 pM. Also, in experiment [2], the 50% effective concentration (EC50) turned out to be 11.2 pM. In experiment [3], the EC50 is 5750 pM. Besides, in experiment [4], the “Ratio (selectivity hAMYR vs hCTR, ratio of EC50 values at the two receptors)” value stood at 10.4 and the EC50 is 553 pM.

The values are drawn from patent US20240067693A1, “POLYPEPTIDES AND USES THEREOF” (MEDIMMUNE LIMITED, priority 2020, published 2024).
